Reference: patent US11591319B2, “Small molecule inducers of autophagy” (Board of Regents, The University of Texas System, priority 2018, dated 2023)

Molecular target: Beclin 1/Bcl-2 interaction (Homo sapiens (Human), UniProt P10415)
Assay: Beclin 1/Bcl-2 AlphaLISA assay (dose-response)
Assay type: binding
From the text: We also developed a high-throughput Beclin 1/Bcl-2 AlphaLISA assay to directly measure the in vitro interaction between Beclin 1 and Bcl-2. AlphaLISA is a bead-based proximity assay that is capable of measuring protein-protein interaction in homogeneous solution.^41 Oxygen singlet molecules are generated by Alpha donor beads upon irradiation at 680 nm and travel to acceptor beads in proximity. […] Thus, a measurable Alpha luminescence signal requires chemical energy transfer between the donor and acceptor beads, and a pair of interacting molecules immobilized on the beads stabilizes bead association to produce measurable Alpha signals.
We used purified recombinant Beclin 1 and Bcl-2 proteins for AlphaLISA, which were optimized for enhanced solubility and expression. Human Beclin 1 was expressed as a fusion protein with StrepII-SUMO at the N-terminus, and three residues on the aromatic finger of Beclin 1 were mutated (F359D/F360D/W361D) to improve solubility and protein stability.^42 These mutations are in the BARA domain, which is far from the BH3 motif recognized by Bcl-2. A recombinant Bcl-2-binding deficient mutant of Beclin 1 (StrepII-SUMO-Beclin 1^ΔBcl-2BD) was used as a negative control. […] For a normalization control, we included a parallel AlphaLISA assay with purified SUMO protein (with an N-terminal StrepII tag and a C-terminal 6xHis tag). The purpose of a normalization control is to eliminate inner filter (false-positive) hits that reduce luminescence signal by interfering with the AlphaLISA assay in ways that are unrelated to the Beclin 1/Bcl-2 interaction. With the normalization control, the interaction of Beclin 1 and Bcl-2 was measured as follows:
All AlphaLISA assays were performed in triplicate in a 384-well format with BB buffer (phosphate-buffered saline supplemented with 0.5% BSA and 1 mM DTT). For the Beclin 1/Bcl-2 AlphaLISA, purified StrepII-SUMO-Beclin 1 was incubated with Bcl-2-6xHis proteins at 300 nM and 60 nM, respectively. For internal control AlphaLISA assays, StrepII-SUMO-6xHis protein (internal control) was used at 20 nM. […] Following the initial incubation, Strep-Tactin Alpha donor (AS106D) and anti-6xHis AlphaLISA acceptor beads (AL128M) were added to a final concentration of 40 μg/mL each and incubated at room temperature in the dark for an additional 1 h. All samples were evaluated in triplicate. Alpha signals were measured by an Envision plate reader (Perkin Elmer). Beclin 1/Bcl-2 Alpha signal was normalized with internal control Alpha signal. The normalized value represents the binding activity of Beclin 1 and Bcl-2. The percent activity of a compound was calculated as the following formula: […]
Protein or peptide concentrations used in dose-response AlphaLISA experiments were as follows: Beclin1/Bcl-2—300 nM/60 nM; SUMO (internal control for Beclin 1/Bcl-2 AlphaLISA)—20 nM; Beclin 1 BH3/Bcl-2—1000 nM/60 nM; Bax BH3/Bcl-2—100 nM/20 nM; Biotin-6xHis (internal control for BH3/Bcl-2 AlphaLISA)—10

Chain of Beclin 1/Bcl-2 interaction (P10415 1-218): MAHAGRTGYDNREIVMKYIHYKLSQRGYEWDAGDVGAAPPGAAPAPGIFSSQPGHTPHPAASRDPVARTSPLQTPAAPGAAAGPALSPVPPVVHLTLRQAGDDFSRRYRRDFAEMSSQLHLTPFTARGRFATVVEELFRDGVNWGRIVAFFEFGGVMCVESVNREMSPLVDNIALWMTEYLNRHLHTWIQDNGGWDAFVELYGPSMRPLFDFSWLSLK

Compound | IC50 [nM]
CC1=NN(C(=O)c2ccc(Br)cc2)C(c2ccccc2)C1 (centres unmarked) [Lqr-8-296] | > 10000
CC(C)(C)OC(=O)Nc1ccc(C2=NN(C(=O)c3ccc4c(c3)OCO4)C(c3ccccc3)C2)cc1 (centres unmarked) [Lqr-9-065] | 6770
Cc1ccc(C(=O)N2N=C(c3ccc(NS(C)(=O)=O)cc3)CC2c2ccco2)cc1 (centres unmarked) [lqr-8-177] | 16200
CS(=O)(=O)Nc1ccc(C2=NN(C(=O)c3ccc(Cl)cc3)C(c3ccco3)C2)cc1 (centres unmarked) [lqr-8-180] | 2760
CS(=O)(=O)Nc1ccc(C2=NN(C(=O)c3ccc(F)cc3)C(c3ccco3)C2)cc1 (centres unmarked) [lqr-8-183] | 12800
COc1ccc(C(=O)N2N=C(c3ccc(NS(C)(=O)=O)cc3)CC2c2ccco2)cc1 (centres unmarked) [lqr-8-185] | 9900
CS(=O)(=O)Nc1ccc(C2=NN(C(=O)c3ccc(Br)cc3)C(c3ccco3)C2)cc1 (centres unmarked) [lqr-8-186] | 2420
CS(=O)(=O)Nc1ccc(C2=NN(C(=O)c3ccc([N+](=O)[O-])cc3)C(c3ccco3)C2)cc1 (centres unmarked) [lqr-8-188] | 1680
CS(=O)(=O)Nc1ccc(C2=NN(C(=O)c3ccc(C(F)(F)F)cc3)C(c3ccco3)C2)cc1 (centres unmarked) [lqr-8-189] | 2790
CS(=O)(=O)Nc1ccc(C2=NN(C(=O)c3ccc(C#N)cc3)C(c3ccco3)C2)cc1 (centres unmarked) [lqr-8-190] | 7230
CS(=O)(=O)Nc1ccc(C2=NN(C(=O)c3ccc(I)cc3)C(c3ccco3)C2)cc1 (centres unmarked) [lqr-8-196] | 2140
Cc1ccc(C(=O)N2N=C(c3ccc(NC(=O)OC(C)(C)C)cc3)CC2c2ccco2)cc1 (centres unmarked) [lqr-8-203] | 2880
CCNc1ccc(C2=NN(C(=O)c3ccc(C)cc3)C(c3ccco3)C2)cc1 (centres unmarked) [lqr-8-219] | 29800
CC(C)(C)OC(=O)Nc1ccc(C2=NN(C(=O)c3ccc(Br)cc3)C(c3ccco3)C2)cc1 (centres unmarked) [lqr-8-231] | 982
CC(C)(C)OC(=O)Nc1ccc(C2=NN(C(=O)c3ccc([N+](=O)[O-])cc3)C(c3ccco3)C2)cc1 (centres unmarked) [lqr-8-233] | 1240
COC(=O)Nc1ccc(C2=NN(C(=O)c3ccc(C)cc3)C(c3ccco3)C2)cc1 (centres unmarked) [lqr-8-235] | 1800
Cc1ccc(C(=O)N2N=C(c3ccc(NS(C)(=O)=O)cc3)CC2c2ccccc2)cc1 (centres unmarked) [lqr-8-238] | 905
Cc1ccc(C(=O)N2N=C(c3ccc(NS(C)(=O)=O)cc3)CC2c2ccc(Br)cc2)cc1 (centres unmarked) [lqr-8-267] | 13900
Cc1ccc(C(=O)N2N=C(c3ccc(NS(C)(=O)=O)cc3)CC2c2ccccc2Br)cc1 (centres unmarked) [lqr-8-269] | 9830
Cc1ccc(C(=O)N2N=C(c3ccc(NS(C)(=O)=O)cc3)CC2c2ccc(C)cc2)cc1 (centres unmarked) [lqr-8-275] | 14200
CC(C)(C)OC(=O)Nc1ccc(C2=NN(C(=O)c3ccc(Br)cc3)C(c3ccccc3)C2)cc1 (centres unmarked) [lqr-8-278] | 274
CC(C)(C)OC(=O)Nc1ccc(C2=NN(C(=O)c3ccc([N+](=O)[O-])cc3)C(c3ccccc3)C2)cc1 (centres unmarked) [lqr-8-279] | 349
CC(C)(C)OC(=O)Nc1ccc(C2=NN(C(=O)c3ccc(Br)cc3)C(c3ccc(Br)o3)C2)cc1 (centres unmarked) [lqr-8-302] | 2680
O=C(c1ccc(Br)cc1)N1N=C(c2ccco2)CC1c1ccccc1 (centres unmarked) [lqr-8-309] | > 10000

Compound | IC50 [nM]
O=C(c1ccc(Br)cc1)N1N=C(c2ccc[nH]2)CC1c1ccccc1 (centres unmarked) [lqr-8-310] | > 10000
COC(=O)Nc1ccc(C2=NN(C(=O)c3ccc(Br)cc3)C(c3ccccc3)C2)cc1 (centres unmarked) [lqr-9-008] | 10000
CC(C)(C)OC(=O)Nc1ccc(-c2cc(-c3ccccc3)[nH]n2)cc1 [lqr-9-012] | > 10000
CC(C)(C)OC(=O)Nc1ccc(-c2cc(-c3ccccc3)n(C(=O)c3ccc(Br)cc3)n2)cc1 [lqr-9-013] | > 10000
CC(C)(C)OC(=O)n1cccc1C1=NN(C(=O)c2ccc(Br)cc2)C(c2ccccc2)C1 (centres unmarked) [lqr-9-018] | > 10000
CCC1CC(c2ccc(NC(=O)OC(C)(C)C)cc2)=NN1C(=O)c1ccc(Br)cc1 (centres unmarked) [lqr-9-026] | 13000
CC(C)(C)OC(=O)Nc1ccc(C2=NN(C(=O)c3ccc(Br)cc3)C(c3ccccn3)C2)cc1 (centres unmarked) [lqr-9-033] | 455
CC(C)(C)OC(=O)Nc1ccc(C2=NN(C(=O)c3ccc(Br)cc3)C(c3cccnc3)C2)cc1 (centres unmarked) [lqr-9-044] | 1800
CC(C)(C)OC(=O)Nc1ccc(C2=NN(C(=O)c3ccc(Br)cc3)C(c3ccncc3)C2)cc1 (centres unmarked) [lqr-9-046] | 3000
CC(C)(C)OC(=O)Nc1ccc(C2=NN(C(=O)c3ccc(Br)cc3)C(c3ccoc3)C2)cc1 (centres unmarked) [lqr-9-048] | 4100
CC(C)(C)OC(=O)Nc1cccc(C2=NN(C(=O)c3ccc(Br)cc3)C(c3ccccc3)C2)c1 (centres unmarked) [lqr-9-055] | 12000
CC(C)(C)OC(=O)Nc1ccc(C2=NN(C(=O)OC(C)(C)C)C(c3ccccc3)C2)cc1 (centres unmarked) [lqr-9-056] | > 10000
O=C=Nc1ccc(C2=NN(C(=O)c3ccc(Br)cc3)C(c3ccccc3)C2)cc1 (centres unmarked) [lqr-9-068] | > 10000
CC(C)NC(=O)Nc1ccc(C2=NN(C(=O)c3ccc(Br)cc3)C(c3ccccc3)C2)cc1 (centres unmarked) [lqr-9-076] | 349
CC(C)NC(=O)Nc1ccc(C2=NN(C(=O)c3ccc(Br)cc3)C(c3ccccc3)C2)cc1 (centres unmarked) [lqr-9-085] | 63
O=C1OCCN1c1ccc(C2=NN(C(=O)c3ccc(Br)cc3)C(c3ccccc3)C2)cc1 (centres unmarked) [lqr-9-088] | 5140
CC(C)(C)NC(=O)Nc1ccc(C2=NN(C(=O)c3ccc(Br)cc3)C(c3ccccc3)C2)cc1 (centres unmarked) [lqr-9-118] | 9100
CNC(=O)Nc1ccc(C2=NN(C(=O)c3ccc(Br)cc3)C(c3ccccc3)C2)cc1 (centres unmarked) [lqr-9-121] | 5520
CC(C)COC(=O)Nc1ccc(C2=NN(C(=O)c3ccc(Br)cc3)C(c3ccccc3)C2)cc1 (centres unmarked) [lqr-9-155] | 184
C=CCOC(=O)Nc1ccc(C2=NN(C(=O)c3ccc(Br)cc3)C(c3ccccc3)C2)cc1 (centres unmarked) [lqr-9-156] | < 156
CCOC(=O)Nc1ccc(C2=NN(C(=O)c3ccc(Br)cc3)C(c3ccccc3)C2)cc1 (centres unmarked) [lqr-9-157] | < 156
CN(C)C(=O)Nc1ccc(C2=NN(C(=O)c3ccc(Br)cc3)C(c3ccccc3)C2)cc1 (centres unmarked) [lqr-9-158] | 2390
O=C(Nc1ccc(C2=NN(C(=O)c3ccc(Br)cc3)C(c3ccccc3)C2)cc1)OC1CC1 (centres unmarked) [lqr-9-161] | < 156
